Experimental findings from patent EP4635500A1, “THERAPEUTIC AGENT FOR BACTERIAL INFECTION” (Sumitomo Pharma Co., Ltd., priority 2022, dated 2024) are described below.

One assay deals with 53 CRE and CPE strains. The assay can be described thus: MICrange, MIC50, MIC80, MIC90 for 53 bacterial isolates (Example 5, Table 5). The following applies: 53 bacterial isolates. Format: cell-based.
For another assay, the system named is P. aeruginosa. In words: MIC, broth microdilution, CDC/FDA Antibiotic Resistance Isolate Bank (Example 7, Tables 10, 15). Format: cell-based. The conditions noted are these: for MIC: Pseudomonas aeruginosa, read-out: MIC.
[1] abbreviates: 26 metallo-carbapenemase-producing P. aeruginosa strains, β-lactamase inhibitor µg/mL in parentheses.
Setting [2] is: 96 strains of P. aeruginosa, β-lactamase inhibitor µg/mL in parentheses.

Structures are written as SMILES. Converted amounts (≈) assume the structure as drawn. Read-outs that look alike come from different tables or passages of the source.

Take `CC(C)(O/N=C(\C(=O)N[C@@H]1C(=O)N2C(C(=O)[O-])=C(C[n+]3ccccc3)CS[C@H]12)c1csc(N)n1)C(=O)O` [CAZ, ceftazidime]: the MIC50 in the assay on 53 CRE and CPE strains (read-out: MIC50) was over 32 µg/mL. For the same compound, the MIC80 in the assay with 53 CRE and CPE strains (read-out: MIC80) was over 32 µg/mL. Also, the MIC90 with 53 CRE and CPE strains (read-out: MIC90) is over 32 µg/mL.
Consider `O=C(O)c1cn(C2CC2)c2cc(N3CCNCC3)c(F)cc2c1=O` [Ciprofloxacin, ciprofloxacin], for which the “MIC against 26 metallo-carbapenemase-producing strains MIC50” value in the assay on P. aeruginosa (setting [1]) is listed as 32 µg(mL). For the same compound, in the assay on P. aeruginosa (setting [1]), the “MIC against 26 metallo-carbapenemase-producing strains MIC90” value is 64 µg(mL). The “MIC against 96 strains of P. aeruginosa MIC50” value in the assay with P. aeruginosa (setting [2]) is reported as 16 µg(mL). In addition, in the assay with P. aeruginosa (setting [2]), the “MIC against 96 strains of P. aeruginosa MIC90” value is recorded as 64 µg(mL). Also, the MIC with P. aeruginosa (P. aeruginosa KUB No. 5602, AR Bank # 105) is over 64 µg/mL; with P. aeruginosa (P. aeruginosa KUB No. 5665, AR Bank # 232), 2 µg/mL (≈ 6.04 µM); with P. aeruginosa (P. aeruginosa KUB No. 5666, AR Bank # 23), 0.5 µg/mL (≈ 1.51 µM); with P. aeruginosa (P. aeruginosa KUB No. 5667, AR Bank # 234) it was 2 µg/mL (≈ 6.04 µM); with P. aeruginosa (P. aeruginosa KUB No. 5669, AR Bank # 236) it was 4 µg/mL (≈ 12.1 µM); in the assay with P. aeruginosa (P. aeruginosa KUB No. 5675, AR Bank # 242) it was 8 µg/mL (≈ 24.1 µM). For the same compound, the MIC in the assay with P. aeruginosa (P. aeruginosa KUB No. 5676, AR Bank # 243) is 8 µg/mL (≈ 24.1 µM); with P. aeruginosa (P. aeruginosa KUB No. 5705, AR Bank # 272), 8 µg/mL (≈ 24.1 µM); in the assay with P. aeruginosa (P. aeruginosa KUB No. 5747, AR Bank # 351), 2 µg/mL (≈ 6.04 µM); with P. aeruginosa (P. aeruginosa KUB No. 5748, AR Bank # 352) it was 4 µg/mL (≈ 12.1 µM); in the assay on P. aeruginosa (P. aeruginosa KUB No. 5750, AR Bank # 354), 4 µg/mL (≈ 12.1 µM); with P. aeruginosa (P. aeruginosa KUB No. 5754, AR Bank # 358), 4 µg/mL (≈ 12.1 µM). Moreover, the minimal inhibitory concentration (MIC) in the assay on P. aeruginosa (P. aeruginosa KUB No. 5755, AR Bank # 359) is 4 µg/mL (≈ 12.1 µM); with P. aeruginosa (P. aeruginosa KUB No. 5798, AR Bank # 455), 1 µg/mL (≈ 3.02 µM); in the assay on P. aeruginosa (P. aeruginosa KUB No. 5801, AR Bank # 458), 0.5 µg/mL (≈ 1.51 µM); in the assay on P. aeruginosa (P. aeruginosa KUB No. 5802, AR Bank # 459), 4 µg/mL (≈ 12.1 µM); in the assay with P. aeruginosa (P. aeruginosa KUB No. 5804, AR Bank # 862) it was 1 µg/mL (≈ 3.02 µM); in the assay with P. aeruginosa (P. aeruginosa KUB No. 5806, AR Bank # 864), over 64 µg/mL. The MIC with P. aeruginosa (P. aeruginosa KUB No. 5813, AR Bank # 508) is 0.002 µg/mL (≈ 0.00604 µM); in the assay with P. aeruginosa (P. aeruginosa KUB No. 5815, AR Bank # 510), 0.004 µg/mL (≈ 0.0121 µM); with P. aeruginosa (P. aeruginosa KUB No. 5817, AR Bank # 512) it was 0.001 µg/mL (≈ 0.00302 µM); in the assay on P. aeruginosa (P. aeruginosa KUB No. 5820, AR Bank # 515) it was over 0.064 µg/mL.
